How the values were obtained:
[1] = tested on: breast cancer cell line MX-1; assay: MX-1 cell line proliferation assay, Method A; type: cell-based; settings: MX-1 cells, 96-well, 72 hours, Cell Titer Glo; read-out: Cellular proliferation: EC50 Method A
Experimental: (§1) The impact of compounds of the Examples on cancer cell proliferation was determined using the breast cancer cell line MX-1 (ATCC) in a 3-day proliferation assay and the data are reported in Table 1.
For compound testing, MX-1 cells were plated in 96-well black bottom plates at a density of 5000 cells/well in 90 μL of culture media and incubated at 370 overnight to allow cell adhesion and spreading. Compound dilution series were prepared in DMSO via a 3-fold serial dilution from 3 mM to 0.1 μM. The DMSO dilution series were then diluted 1:100 in phosphate buffered saline, and 10 μL of the resulted solution were added to the appropriate wells of the MX-1 cell plate. The final compound concentrations in the wells were 3, 1, 0.3, 0.1, 0.03, 0.01, 0.003, 0.001, 0.0003 and 0.0001 μM.
(§2) Luminescence readings from the Cell Titer Glo assay were normalized to the DMSO treated cells and analyzed using the GraphPad Prism software with sigmoidal curve fitting to obtain EC50s. The minimum significant ratio (MSR) was determined to evaluate assay reproducibility (Eastwood et al., (2006) J Biomol Screen, 11: 253-261).

[2] = tested on: breast cancer cell line MX-1; assay: MX-1 cell line proliferation assay, Method B; type: cell-based; settings: Homo sapiens, MX1; MX-1 cells, 384-well, 72 hours, Cell Titer Glo; read-out: Cellular proliferation: EC50 Method B
Experimental: as §1
Method B: MX-1 cells were maintained in RPMI 1640 medium (Sigma) supplemented with 10% FBS at 37 C.° and an atmosphere of 5% CO2. For compound testing, MX-1 cells were plated in 384-well white with clear, flat bottom plates at a density of 750 cells/well in 25 μL of culture media and incubated at 370 overnight to allow cell adhesion and spreading. Ten point compound dilution series were prepared in DMSO via a 3-fold serial dilution from either […] or 1 μM stock and added directly to the appropriate wells of the MX-1 cell plate by an ECHO liquid handler (Labcyte). The final compound concentrations in the wells were 10, 3.25, 1, 0.25, 0.124, 0.040, 0.0124, 0.0031, 0.0015 and 0.0005 μM or 1, 0.33, 0.1, 0.025, 0.0124, 0.004, 0.0012, 0.0003, 0.00015, 0.00005 μM, depending on the concentration of the compound stock solution.
as §2, with “Accelrys Assay Explorer 3.3” for “the GraphPad Prism”, “ECsos.” for “EC50s.”, “253-261). The overall MSR was determined to be 3.3 and a moving MSR (last six run MSR overtime) has averaged” for “253-261).”

BRD4 (BDII_E352-M457) = BRD4 (BDII_E352-M457) (Homo sapiens (Human), UniProt O60885); assay: TR-FRET bromodomain binding assay, BRD4 second bromodomain; settings: His-tagged BD2, Alexa647-labeled probe 30 nM
Procedure, shortened: (§3)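 Read-out: TR-FRET ratio after 1 h at room temperature, normalized to controls and fitted for IC50, then converted to Ki. Reaction held 8 nM His-tagged domain, 1 nM Eu-anti-His antibody, Alexa647 probe (BDI 100 nM; BDII 30 nM) and test compound in 2% DMSO.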

BRD4 (BDI_K57-E168) = BRD4 (BDI_K57-E168) (Homo sapiens (Human), UniProt O60885); assay: TR-FRET bromodomain binding assay, BRD4 first bromodomain; settings: His-tagged BD1, Alexa647-labeled probe 100 nM
Procedure, shortened: as §3

Row | EC50 [2] | Ki (BRD4 (BDII_E352-M457)) | Ki (BRD4 (BDI_K57-E168)) | SMILES | EC50 [1]
1 |  |  |  | COc1ccc(S(=O)(=O)Nc2cccc(Oc3ccc(S(C)(=O)=O)cc3-c3cn(C)c(=O)c4[nH]ccc34)c2)cc1OC [Example 53] | 144 nM
2 |  |  |  | Cn1cc(-c2cc(S(C)(=O)=O)ccc2NC2CCN(S(=O)(=O)/C=C/c3ccccc3)CC2)c2cc[nH]c2c1=O [Example 102] | 67.3 nM
3 | 1610 nM | 13.3 nM | 2300 nM | CCNC(=O)c1cc2c(-c3ccc(C(=O)N(CCN(C)C)c4ncccn4)cc3Oc3c(C)cccc3C)cn(C)c(=O)c2[nH]1 [Example 174, 4-[4-{[2-(dimethylamino)ethyl](pyrimidin-2-yl)carbamoyl}-2-(2,6-dimethylphenoxy)phenyl]-N-ethyl-6-methyl-7-oxo-6,7-dihydro-1H-pyrrolo[2,3-c]pyridine-2-carboxamide] | 
4 | 2410 nM | 17.5 nM | 2230 nM | CCNC(=O)c1cc2c(-c3ccc(C(=O)N(CCC#N)c4cccc(Cl)c4)cc3Oc3c(C)cccc3C)cn(C)c(=O)c2[nH]1 [Example 175, 4-{4-[(3-chlorophenyl)(2-cyanoethyl)carbamoyl]-2-(2,6-dimethylphenoxy)phenyl}-N-ethyl-6-methyl-7-oxo-6,7-dihydro-1H-pyrrolo[2,3-c]pyridine-2-carboxamide] | 
5 | 3910 nM | 8.65 nM | 927 nM | CCNC(=O)c1cc2c(-c3ccc(C(=O)N(CCC#N)C4CCCCC4)cc3Oc3c(C)cccc3C)cn(C)c(=O)c2[nH]1 [Example 176, 4-{4-[(2-cyanoethyl)(cyclohexyl)carbamoyl]-2-(2,6-dimethylphenoxy)phenyl}-N-ethyl-6-methyl-7-oxo-6,7-dihydro-1H-pyrrolo[2,3-c]pyridine-2-carboxamide] | 
6 | 10000 nM | 9.21 nM | 1490 nM | CCNC(=O)c1cc2c(-c3ccc(C(=O)N(CC#N)c4ccccc4)cc3Oc3c(C)cccc3C)cn(C)c(=O)c2[nH]1 [Example 177, 4-{4-[(cyanomethyl)(phenyl)carbamoyl]-2-(2,6-dimethylphenoxy)phenyl}-N-ethyl-6-methyl-7-oxo-6,7-dihydro-1H-pyrrolo[2,3-c]pyridine-2-carboxamide] | 
7 | 10000 nM | 2.5 nM | 592 nM | CCNC(=O)c1cc2c(-c3ccc(C(=O)N(CCN(CC)CC)c4ccccc4OC)cc3Oc3c(C)cccc3C)cn(C)c(=O)c2[nH]1 [Example 178, 4-[4-{[2-(diethylamino)ethyl](2-methoxyphenyl)carbamoyl}-2-(2,6-dimethylphenoxy)phenyl]-N-ethyl-6-methyl-7-oxo-6,7-dihydro-1H-pyrrolo[2,3-c]pyridine-2-carboxamide] | 
8 | 991 nM | 8.24 nM | 1580 nM | CCNC(=O)c1cc2c(-c3ccc(C(=O)N(CCN(C)C)c4ccccc4)cc3Oc3c(C)cccc3C)cn(C)c(=O)c2[nH]1 [Example 179, 4-[4-{[2-(dimethylamino)ethyl](phenyl)carbamoyl}-2-(2,6-dimethylphenoxy)phenyl]-N-ethyl-6-methyl-7-oxo-6,7-dihydro-1H-pyrrolo[2,3-c]pyridine-2-carboxamide] | 
9 | 6060 nM | 30.8 nM | 8610 nM | CCNC(=O)c1cc2c(-c3ccc(C(=O)N(CCCC(=O)OCC)c4ccccc4)cc3Oc3c(C)cccc3C)cn(C)c(=O)c2[nH]1 [Example 180, ethyl 4-[{3-(2,6-dimethylphenoxy)-4-[2-(ethylcarbamoyl)-6-methyl-7-oxo-6,7-dihydro-1H-pyrrolo[2,3-c]pyridin-4-yl]benzoyl}(phenyl)amino]butanoate] | 
10 | 3980 nM | 9.18 nM | 1730 nM | CCNC(=O)c1cc2c(-c3ccc(C(=O)N(CCN(C)C)c4ccccn4)cc3Oc3c(C)cccc3C)cn(C)c(=O)c2[nH]1 [Example 181, 4-[4-{[2-(dimethylamino)ethyl](pyridin-2-yl)carbamoyl}-2-(2,6-dimethylphenoxy)phenyl]-N-ethyl-6-methyl-7-oxo-6,7-dihydro-1H-pyrrolo[2,3-c]pyridine-2-carboxamide] | 
11 | 2120 nM | 6.06 nM | 921 nM | CCNC(=O)c1cc2c(-c3ccc(C(=O)N(CCN(CC)CC)c4ccccc4)cc3Oc3c(C)cccc3C)cn(C)c(=O)c2[nH]1 [Example 182, 4-[4-{[2-(diethylamino)ethyl](phenyl)carbamoyl}-2-(2,6-dimethylphenoxy)phenyl]-N-ethyl-6-methyl-7-oxo-6,7-dihydro-1H-pyrrolo[2,3-c]pyridine-2-carboxamide] | 
12 | 1480 nM | 14.1 nM | 2800 nM | CCNC(=O)c1cc2c(-c3ccc(C(=O)N(CC#N)c4ccc(OC)cc4)cc3Oc3c(C)cccc3C)cn(C)c(=O)c2[nH]1 [Example 183, 4-{4-[(cyanomethyl)(4-methoxyphenyl)carbamoyl]-2-(2,6-dimethylphenoxy)phenyl}-N-ethyl-6-methyl-7-oxo-6,7-dihydro-1H-pyrrolo[2,3-c]pyridine-2-carboxamide] | 
13 | 2840 nM | 11.1 nM | 1080 nM | CCCCN(CCC#N)C(=O)c1ccc(-c2cn(C)c(=O)c3[nH]c(C(=O)NCC)cc23)c(Oc2c(C)cccc2C)c1 [Example 184, 4-{4-[butyl(2-cyanoethyl)carbamoyl]-2-(2,6-dimethylphenoxy)phenyl}-N-ethyl-6-methyl-7-oxo-6,7-dihydro-1H-pyrrolo[2,3-c]pyridine-2-carboxamide] | 
14 | 2720 nM | 14.3 nM | 2940 nM | CCNC(=O)c1cc2c(-c3ccc(C(=O)N(CCN(C)C)c4ccnc(F)c4)cc3Oc3c(C)cccc3C)cn(C)c(=O)c2[nH]1 [Example 185, 4-[4-{[2-(dimethylamino)ethyl](2-fluoropyridin-4-yl)carbamoyl}-2-(2,6-dimethylphenoxy)phenyl]-N-ethyl-6-methyl-7-oxo-6,7-dihydro-1H-pyrrolo[2,3-c]pyridine-2-carboxamide] | 
15 | 7650 nM | 178 nM | > 12700 nM | CCNC(=O)c1cc2c(-c3ccc(C(=O)N(c4ccccc4)C4CCCCC4)cc3Oc3c(C)cccc3C)cn(C)c(=O)c2[nH]1 [Example 186, 4-{4-[cyclohexyl(phenyl)carbamoyl]-2-(2,6-dimethylphenoxy)phenyl}-N-ethyl-6-methyl-7-oxo-6,7-dihydro-1H-pyrrolo[2,3-c]pyridine-2-carboxamide] | 
16 | 290 nM | 2.52 nM | 99.8 nM | Cc1cccc(C)c1Oc1ccc(S(C)(=O)=O)cc1-c1cn(C)c(=O)c2[nH]c(C(=O)NCCCN(C)C3CCCCC3)cc12 [Example 187, N-{3-[cyclohexyl(methyl)amino]propyl}-4-[2-(2,6-dimethylphenoxy)-5-(methylsulfonyl)phenyl]-6-methyl-7-oxo-6,7-dihydro-1H-pyrrolo[2,3-c]pyridine-2-carboxamide] | 
17 | 76.8 nM | 151 nM | 1.56 nM | CN1CCN(Cc2cc3c(-c4cc(S(C)(=O)=O)ccc4Oc4ccc(F)cc4F)cn(C)c(=O)c3[nH]2)C(c2ccccc2)C1 (centres unmarked) [Example 188, 4-[2-(2,4-difluorophenoxy)-5-(methylsulfonyl)phenyl]-6-methyl-2-[(4-methyl-2-phenylpiperazin-1-yl)methyl]-1,6-dihydro-7H-pyrrolo[2,3-c]pyridin-7-one] | 
